According to US20060040957A1, “BICYCLIC PYRIMIDINE MATRIX METALLOPROTEINASE INHIBITORS” (priority 2001, published 2006):
Counter-ions that a name gives are not always drawn.

Tests used:
Type in all cases: biochemical
[1] = molecular target: MMP-9FL (full length Gelatinase B) (Homo sapiens, UniProt P14780); experiment: Thiopeptolide substrate hydrolysis assay, MMP-9FL; conditions: HEPES pH 7.0, 22° C., read-out: IC50 (μM) Versus Certain MMPs: MMP-09 FL
Text: (§1) The invention compounds of Formula I have been evaluated in standard assays for their ability to inhibit the catalytic activity of various MMP enzymes.
(§2) Thiopeptolide substrates show virtually no decomposition or hydrolysis at or below neutral pH in the absence of a matrix metalloproteinase enzyme.
(§3) Several representative compounds have been evaluated for their ability to inhibit various matrix metalloproteinase enzymes.

[2] = molecular target: MMP-14CD (catalytic domain of MMP-14) (Homo sapiens, UniProt P50281); experiment: Thiopeptolide substrate hydrolysis assay, MMP-14CD; conditions: HEPES pH 7.0, 22° C., read-out: IC50 (μM) Versus Certain MMPs: MMP-14 CD
Text: as §1, §2, §3

[3] = molecular target: T1, MMP-7FL (full length matrilysin) (Homo sapiens, UniProt P09237); experiment: Thiopeptolide substrate hydrolysis assay, MMP-7FL; conditions: HEPES pH 7.0, 22° C., read-out: IC50 (μM) Versus Certain MMPs: MMP-07 FL
T1 sequence (P09237 95-267): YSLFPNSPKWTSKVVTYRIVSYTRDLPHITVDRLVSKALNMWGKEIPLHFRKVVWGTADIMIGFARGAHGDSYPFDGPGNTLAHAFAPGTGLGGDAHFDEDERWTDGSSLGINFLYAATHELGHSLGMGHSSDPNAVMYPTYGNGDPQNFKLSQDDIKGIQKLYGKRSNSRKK
Text: as §1, §2, §3

[4] = molecular target: T2, MMP-2FL (full length Gelatinase A) (Homo sapiens, UniProt P08253); experiment: Thiopeptolide substrate hydrolysis assay, MMP-2FL; conditions: HEPES pH 7.0, 22° C., read-out: IC50 (μM) Versus Certain MMPs: MMP-02 FL
T2 sequence (P08253 110-660): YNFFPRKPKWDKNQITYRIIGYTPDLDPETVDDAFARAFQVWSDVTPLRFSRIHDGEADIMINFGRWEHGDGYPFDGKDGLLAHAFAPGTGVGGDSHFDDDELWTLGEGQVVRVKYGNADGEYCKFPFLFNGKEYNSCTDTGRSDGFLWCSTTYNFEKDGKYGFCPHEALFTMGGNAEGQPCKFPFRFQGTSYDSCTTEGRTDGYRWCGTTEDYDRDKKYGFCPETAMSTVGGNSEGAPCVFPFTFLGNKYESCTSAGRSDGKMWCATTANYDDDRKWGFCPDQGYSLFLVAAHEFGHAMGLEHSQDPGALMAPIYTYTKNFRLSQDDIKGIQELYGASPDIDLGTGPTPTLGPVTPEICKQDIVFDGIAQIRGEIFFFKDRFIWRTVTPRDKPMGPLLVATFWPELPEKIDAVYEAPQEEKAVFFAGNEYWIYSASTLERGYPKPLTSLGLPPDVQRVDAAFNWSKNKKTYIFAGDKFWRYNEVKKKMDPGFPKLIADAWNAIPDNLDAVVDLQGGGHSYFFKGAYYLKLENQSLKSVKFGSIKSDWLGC
Text: as §1, §2, §3

MMP-9FL (full length Gelatinase B), sequence (P14780 94-707, species assumed): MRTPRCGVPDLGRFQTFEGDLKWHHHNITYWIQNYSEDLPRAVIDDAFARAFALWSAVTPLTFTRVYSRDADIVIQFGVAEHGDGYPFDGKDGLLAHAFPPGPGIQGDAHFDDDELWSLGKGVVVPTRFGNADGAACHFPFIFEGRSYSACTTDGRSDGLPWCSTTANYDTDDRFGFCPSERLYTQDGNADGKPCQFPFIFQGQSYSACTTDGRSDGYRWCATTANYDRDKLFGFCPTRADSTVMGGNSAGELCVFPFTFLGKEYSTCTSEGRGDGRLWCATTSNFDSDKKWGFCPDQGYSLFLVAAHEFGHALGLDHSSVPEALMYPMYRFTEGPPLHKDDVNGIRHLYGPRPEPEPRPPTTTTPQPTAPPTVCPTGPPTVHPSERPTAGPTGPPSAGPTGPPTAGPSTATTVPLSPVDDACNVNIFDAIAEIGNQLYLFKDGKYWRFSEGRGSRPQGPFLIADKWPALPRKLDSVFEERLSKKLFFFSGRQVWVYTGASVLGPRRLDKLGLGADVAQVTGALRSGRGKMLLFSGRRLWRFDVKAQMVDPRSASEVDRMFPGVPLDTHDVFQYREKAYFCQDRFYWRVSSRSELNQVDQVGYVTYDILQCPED

Structure (SMILES)	IC50 [1]	IC50 [2]	IC50 [3]	IC50 [4]
O=C(NCc1ccncc1)c1cn2c(=O)n(Cc3ccccc3)c(=O)cc2s1 [Example 9, 6-Benzyl-5,7-dioxo-6,7-dihydro-5H-thiazolo[3,2-c]pyrimidine-2-carboxylic acid(pyridin-4-ylmethyl)-amide hydrochloride]	> 100 µM	> 100 µM	> 100 µM	> 100 µM
Cc1c(=O)n(Cc2ccccc2)c(=O)n2cc(C(=O)NCc3cccc(F)c3)sc12 [Example 10, 6-Benzyl-8-methyl-5,7-dioxo-6,7-dihydro-5H-thiazolo[3,2-c]pyrimidine-2-carboxylic acid 3-fluoro-benzylamide]	> 30 µM	> 30 µM	21 µM	> 100 µM
O=C(NCc1ccccc1)c1cn2c(=O)n(Cc3ccncc3)c(=O)cc2s1 [Example 15, 6-(4-Pyridylmethyl)-5,7-dioxo-6,7-dihydro-5H-thiazolo[3,2-c]pyrimidine-2-carboxylic acid benzylamide hydrochloride]	> 100 µM	> 100 µM	> 100 µM	> 100 µM
O=C(NCc1ccncc1)C1Cn2c(cc(=O)n(Cc3ccccc3)c2=O)S1 (stereo not drawn) [Example 22, 6-Benzyl-5,7-dioxo-2,3,6,7-tetrahydro-5H-thiazolo[3,2-c]pyrimidine-2-carboxylic acid(pyridin-4-ylmethyl)-amide]	> 100 µM	> 100 µM	> 100 µM	> 100 µM
O=C(OCc1ccccc1)C1C[S+]([O-])c2cc(=O)n(Cc3ccccc3)c(=O)n21 (stereo not drawn) [Example 23, 6-Benzyl-1,5,7-trioxo-1,2,3,5,6,7-hexahydro-114-thiazolo[3,2-c]pyrimidine-3-carboxylic acid benzyl ester]	> 100 µM	> 100 µM	> 100 µM	> 100 µM
Cc1cccc(CNC(=O)c2cn3c(=O)n(Cc4ccccc4)c(=O)c(C)c3s2)c1 [Example 28, 6-Benzyl-8-methyl-5,7-dioxo-6,7-dihydro-5H-thiazolo[3,2-c]pyrimidine-2-carboxylic acid 3-methyl-benzylamide]	> 30 µM	> 100 µM	71 µM	> 30 µM
Cc1c(=O)n(Cc2ccccc2)c(=O)n2cc(C(=O)NCc3ccc(F)cc3)sc12 [Example 30, 6-Benzyl-8-methyl-5,7-dioxo-6,7-dihydro-5H-thiazolo[3,2-c]pyrimidine-2-carboxylic acid 4-fluoro-benzylamide]	> 30 µM	> 30 µM	> 30 µM	> 30 µM
COc1ccc(CNC(=O)c2cn3c(=O)n(Cc4ccccc4)c(=O)c(C=O)c3s2)cc1 [Example 32, 6-Benzyl-8-formyl-5,7-dioxo-6,7-dihydro-5H-thiazolo[3,2-c]pyrimidine-2-carboxylic acid 4-methoxy-benzylamide]	> 100 µM	> 30 µM	> 30 µM	> 100 µM
Cc1c(=O)n(Cc2ccccc2)c(=O)n2cc(C(=O)NCc3ccncc3)sc12 [Example 36, 6-Benzyl-8-methyl-5,7-dioxo-6,7-dihydro-5H-thiazolo[3,2-c]pyrimidine-2-carboxylic acid(pyridin-4-ylmethyl)-amide hydrochloride]	> 30 µM	> 100 µM	> 100 µM	> 100 µM
Cc1c(=O)n(Cc2ccccc2)c(=O)n2cc(C(=O)NCc3ccc(F)c(F)c3)sc12 [Example 43, 6-Benzyl-8-methyl-5,7-dioxo-6,7-dihydro-5H-thiazolo[3,2-c]pyrimidine-2-carboxylic acid 3,4-difluoro-benzylamide]	> 30 µM	> 100 µM	> 30 µM	> 30 µM
Cc1c(=O)n(Cc2ccccc2)c(=O)n2cc(C(=O)NCc3cccnc3)sc12 [Example 44, 6-benzyl-8-methyl-5,7-dioxo-6,7-dihydro-5H-thiazolo[3,2-c]pyrimidine-2-carboxylic acid(pyridin-3-ylmethyl)-amide]	> 30 µM	> 100 µM	> 100 µM	> 100 µM
COc1ccc(CNC(=O)c2cn3c(=O)n(Cc4ccccc4)c(=O)c(C)c3s2)cc1F [Example 46, 6-Benzyl-8-methyl-5,7-dioxo-6,7-dihydro-5H-thiazolo[3,2-c]pyrimidine-2-carboxylic acid 3-fluoro-4-methoxy-benzylamide]	> 100 µM	> 100 µM	> 30 µM	> 100 µM
Cc1ccc(CNC(=O)c2cn3c(=O)n(Cc4ccccc4)c(=O)c(C)c3s2)cc1 [Example 48, 6-Benzyl-8-methyl-5,7-dioxo-6,7-dihydro-5H-thiazolo[3,2-c]pyrimidine-2-carboxylic acid 4-methyl-benzylamide]	> 100 µM	> 100 µM	28 µM	> 30 µM
Cc1c(=O)n(Cc2ccccc2)c(=O)n2cc(C(=O)NCc3ccc(C(F)(F)F)cc3)sc12 [Example 49, 6-Benzyl-8-methyl-5,7-dioxo-6,7-dihydro-5H-thiazolo[3,2-c]pyrimidine-2-carboxylic acid 4-trifluoromethyl-benzylamide]	> 100 µM	> 100 µM	> 100 µM	> 30 µM
Cc1c(=O)n(Cc2ccccc2)c(=O)n2cc(C(=O)NCc3ccc(Cl)cc3)sc12 [Example 50, 6-Benzyl-8-methyl-5,7-dioxo-6,7-dihydro-5H-thiazolo[3,2-c]pyrimidine-2-carboxylic acid 4-chloro-benzylamide]	> 100 µM	> 100 µM	31 µM	> 30 µM
Cc1c(=O)n(Cc2ccccc2)c(=O)n2cc(C(=O)NCc3ccc(OC(F)(F)F)cc3)sc12 [Example 51, 6-Benzyl-8-methyl-5,7-dioxo-6,7-dihydro-5H-thiazolo[3,2-c]pyrimidine-2-carboxylic acid 4-trifluoromethoxy-benzylamide]	> 100 µM	> 100 µM	> 30 µM	> 30 µM
COc1ccc(CNC(=O)c2cn3c(=O)n(Cc4ccc(C(=O)OCCN(C)C)cc4)c(=O)c(C)c3s2)cc1 [Example 57, 4-[2-(4-Methoxy-benzylcarbamoyl)-8-methyl-5,7-dioxo-7H-thiazolo[3,2c]pyrimidin-6-ylmethyl]-benzoic acid 2-dimethylamine-ethyl ester hydrochloride]	> 30 µM	> 30 µM	> 30 µM	> 30 µM
Cc1c(=O)n(Cc2ccc(C(=O)OCCN(C)C)cc2)c(=O)n2cc(C(=O)NCc3ccc(F)cc3)sc12 [Example 60, 4-[2-(4-Fluoro-benzylcarbamoyl)-8-methyl-5,7-dioxo-7H-thiazolo[3,2-c]pyrimidin-6-ylmethyl]-benzoic acid 2-dimethylamino-ethyl ester]	> 100 µM	> 100 µM	> 100 µM	> 100 µM
Cc1c(=O)n(Cc2ccc(C(=O)OCCN(C)C)cc2)c(=O)n2cc(C(=O)NCc3ccncc3)sc12 [Example 63, 4-{8-Methyl-5,7-dioxo-2-[(pyridin-4-ylmethyl)-carbamoyl]-7H-thiazolo[3,2-c]pyrimidin-6-ylmethyl}-benzoic acid 2-dimethylamino-ethyl ester dihydrochloride]	> 100 µM	> 100 µM	> 100 µM	> 100 µM
Cc1nc(Cn2c(=O)c(C)c3sc(C(=O)NCc4ccc(F)cc4)cn3c2=O)cs1 [Example 64, 8-Methyl-6-(2-methyl-thiazol-4-ylmethyl)-5,7-dioxo-6,7-dihydro-5H-thiazolo[3,2-c]pyrimidine-2-carboxylic acid 4-fluoro-benzylamide]	> 30 µM	> 100 µM	> 100 µM	> 100 µM
Cc1c(=O)n(Cc2ccc(F)cc2)c(=O)n2cc(C(=O)NCc3ccncc3)sc12 [Example 70, 6-(4-Fluoro-benzyl)-8-methyl-5,7-dioxo-6,7-dihydro-5H-thiazolo[3,2-c]pyrimidine-2-carboxylic acid(pyridin-4-ylmethyl)-amide hydrochloride]	> 30 µM	> 30 µM	> 30 µM	> 30 µM
